Data: patent US7560458B2, “Triazolopyrimidine derivatives as glycogen synthase kinase 3 inhibitors” (Janssen Pharmaceutica, N.V., priority 2003, dated 2009)

Legend:
GSK3β = GSK3β (Homo sapiens, UniProt P49841); test: GSK3beta assay (SPA, biotinylated phosphorylated CREB peptide, ATP-P33); type: biochemical; conditions: −log IC50 (M); given as ranges (>8; 7-8; <7); read-out: pIC50 (GSK3beta) (converted)
Description: (§1) GSK3beta assays were performed at room temperature in a 100 μl reaction volume of 25 mM Tris (ph 7.4) containing 10 mM MgCl2.6H2O 1 mM DTT, 0.1 mg/ml BSA, 5% glyceol and containing 5.7 ng/μl GSK3β, 5 μM biotinylated phosphorylated CREB peptide, 1 μM APT, 0.85 μCi/ml ATP-P^33 and a suitable amount of a test compound of formula (I). After one hour, the reaction was terminated by adding 70 μl of Stop mix (0.1 mM APT, 5 mg/ml streptavidin coated PVT SPA bead pH 11.0). The beads to which the phosphorylated CREB peptide is attached were allowed to settle overnight and the radioactivity of the beads was counted in a microtiterplate scintillation counter and compared with the results obtained in a control experiment (without the presence of a test compound) in order to determine the percentage of GSK3β inhibition. The IC50 value, i.e. the concentration (M) of the test compound at which 50% of GSK3β is inhibited, was calculated from the dose response curve obtained by performing the above-described GSKK3β assay in the presence of different amounts of the test compound.

GSK3alpha = GSK3alpha (Homo sapiens, UniProt P49840); test: GSK3alpha assay (same as the GSK3beta assay, GSK3alpha 0.25 ng/μl); type: biochemical; conditions: −log IC50 (M); given as ranges (>8; 7-8; <7); read-out: pIC50 (GSK3alpha) (converted)
GSK3alpha, sequence (P49840 whole entry, species assumed): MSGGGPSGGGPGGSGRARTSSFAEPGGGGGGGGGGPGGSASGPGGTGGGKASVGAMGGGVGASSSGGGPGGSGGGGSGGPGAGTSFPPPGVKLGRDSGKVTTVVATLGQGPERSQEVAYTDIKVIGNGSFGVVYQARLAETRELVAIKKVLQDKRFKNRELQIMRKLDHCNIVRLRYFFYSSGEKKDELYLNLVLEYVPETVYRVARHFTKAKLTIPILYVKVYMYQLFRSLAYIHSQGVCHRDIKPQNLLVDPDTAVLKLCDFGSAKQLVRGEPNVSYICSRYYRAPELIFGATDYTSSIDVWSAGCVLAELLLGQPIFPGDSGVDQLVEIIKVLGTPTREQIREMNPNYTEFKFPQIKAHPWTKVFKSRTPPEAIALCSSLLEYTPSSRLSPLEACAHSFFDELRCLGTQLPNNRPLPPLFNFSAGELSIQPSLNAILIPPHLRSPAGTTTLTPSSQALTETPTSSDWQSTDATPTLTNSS
Description: as §1
The GSK3alpha assay was performed in the same way as described above for the GSK3beta assay except for the concentration of GSK3alpha which is 0.25 ng/μl.

GSK3β, sequence (P49841 whole entry, species assumed): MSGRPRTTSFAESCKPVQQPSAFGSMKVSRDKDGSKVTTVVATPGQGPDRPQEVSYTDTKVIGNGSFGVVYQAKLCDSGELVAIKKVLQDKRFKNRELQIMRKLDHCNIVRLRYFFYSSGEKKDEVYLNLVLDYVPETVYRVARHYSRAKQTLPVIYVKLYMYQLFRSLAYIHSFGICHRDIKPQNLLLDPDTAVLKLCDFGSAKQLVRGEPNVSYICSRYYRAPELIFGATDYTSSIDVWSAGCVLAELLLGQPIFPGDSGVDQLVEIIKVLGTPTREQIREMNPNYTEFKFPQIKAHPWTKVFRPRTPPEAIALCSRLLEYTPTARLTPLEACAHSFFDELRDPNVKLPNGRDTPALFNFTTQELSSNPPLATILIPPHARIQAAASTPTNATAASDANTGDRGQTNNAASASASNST

| SMILES | IC50 (GSK3β) | IC50 (GSK3alpha) |
| --- | --- | --- |
| COCC(=O)NCc1cccc(-n2nnc3cnc(Nc4ccc(NC(C)=O)c(C(=O)OC)c4)nc32)c1 [Compound 157] | < 1e-08 M | < 1e-08 M |
| COCC(=O)NCc1cccc(-n2nnc3cnc(Nc4cccc(NS(C)(=O)=O)c4)nc32)c1 [Compound 158] | < 1e-08 M | < 1e-08 M |
| NS(=O)(=O)c1ccc(Nc2ncc3nnn(-c4cccc(CC(=O)O)c4)c3n2)cc1 [Compound 160] | 1e-08 to 1e-07 M | 1e-08 to 1e-07 M |
| CC(=O)NCc1cccc(Nc2ncc3nnn(-c4cccc(CCO)c4)c3n2)c1 [Compound 167] | < 1e-08 M | < 1e-08 M |
| COCc1cccc(Nc2ncc3nnn(-c4cccc(CCO)c4)c3n2)c1 [Compound 168] | < 1e-08 M | < 1e-08 M |
| NS(=O)(=O)c1ccc(Nc2ncc3nnn(-c4cccc(CCO)c4)c3n2)cc1 [Compound 169] | < 1e-08 M | < 1e-08 M |
| COc1cc(Nc2ncc3nnn(-c4cccc(CCO)c4)c3n2)ccc1F [Compound 171] | < 1e-08 M | < 1e-08 M |
| OCCc1cccc(Nc2ncc3nnn(-c4cccc(CCO)c4)c3n2)c1 [Compound 172] | < 1e-08 M | < 1e-08 M |
| COc1ccc(Nc2ncc3nnn(-c4cccc(CCO)c4)c3n2)cn1 [Compound 173] | < 1e-08 M | < 1e-08 M |
| COCC(=O)NCc1cccc(-n2nnc3cnc(Nc4ccc(S(N)(=O)=O)cc4)nc32)c1 [Compound 174] | < 1e-08 M | < 1e-08 M |
| COCC(=O)NCc1cccc(-n2nnc3cnc(Nc4cccc(C#N)c4)nc32)c1 [Compound 175] | < 1e-08 M | < 1e-08 M |
| NC(=O)CNC(=O)c1cccc(Nc2ncc3nnn(-c4cccc(CC(=O)O)c4)c3n2)c1 [Compound 176] | 1e-08 to 1e-07 M | 1e-08 to 1e-07 M |
| CS(=O)(=O)Nc1cccc(Nc2ncc3nnn(-c4cccc(CC(=O)O)c4)c3n2)c1 [Compound 180] | 1e-08 to 1e-07 M | 1e-08 to 1e-07 M |
| CC(C)CC(=O)NCc1cccc(-n2nnc3cnc(Nc4cccc(C#N)c4)nc32)c1 [Compound 185] | < 1e-08 M | < 1e-08 M |
| CC(C)CC(=O)NCc1cccc(-n2nnc3cnc(Nc4cccc(C(=O)NCCO)c4)nc32)c1 [Compound 186] | 1e-08 to 1e-07 M | < 1e-08 M |
| COCc1cccc(Nc2ncc3nnn(-c4cccc(CNC(=O)CC(C)C)c4)c3n2)c1 [Compound 188] | < 1e-08 M | < 1e-08 M |
| CC(C)CC(=O)NCc1cccc(-n2nnc3cnc(Nc4cccc(NS(C)(=O)=O)c4)nc32)c1 [Compound 189] | < 1e-08 M | < 1e-08 M |
| CC(C)CC(=O)NCc1cccc(-n2nnc3cnc(Nc4ccc(C#N)cc4)nc32)c1 [Compound 190] | 1e-08 M | < 1e-08 M |
| CC(C)CC(=O)NCc1cccc(-n2nnc3cnc(Nc4ccc(C(N)=O)cc4)nc32)c1 [Compound 191] | < 1e-08 M | < 1e-08 M |
| CC(C)CC(=O)NCc1cccc(-n2nnc3cnc(Nc4ccc(C(=O)NCC(=O)O)cc4)nc32)c1 [Compound 192] | < 1e-08 M | < 1e-08 M |

| SMILES | IC50 (GSK3β) | IC50 (GSK3alpha) |
| --- | --- | --- |
| CC(C)CC(=O)NCc1cccc(-n2nnc3cnc(Nc4ccc(C(=O)O)cc4)nc32)c1 [Compound 193] | 1e-08 to 1e-07 M | 1e-08 to 1e-07 M |
| CC(C)CC(=O)NCc1cccc(-n2nnc3cnc(Nc4ccc(CC(=O)O)cc4)nc32)c1 [Compound 194] | 1e-08 to 1e-07 M | < 1e-08 M |
| CC(C)CC(=O)NCc1cccc(-n2nnc3cnc(Nc4ccc(CCO)cc4)nc32)c1 [Compound 195] | 1e-08 to 1e-07 M | < 1e-08 M |
| CC(C)CC(=O)NCc1cccc(-n2nnc3cnc(Nc4ccc(S(N)(=O)=O)cc4)nc32)c1 [Compound 197] | < 1e-08 M | < 1e-08 M |
| O=C(NCCO)c1cccc(Nc2ncc3nnn(-c4cccc(CNC(=O)C5CC5)c4)c3n2)c1 [Compound 200] | 1e-08 to 1e-07 M | < 1e-08 M |
| COCc1cccc(Nc2ncc3nnn(-c4cccc(CNC(=O)C5CC5)c4)c3n2)c1 [Compound 201] | < 1e-08 M | < 1e-08 M |
| CS(=O)(=O)Nc1cccc(Nc2ncc3nnn(-c4cccc(CNC(=O)C5CC5)c4)c3n2)c1 [Compound 202] | < 1e-08 M | < 1e-08 M |
| N#Cc1ccc(Nc2ncc3nnn(-c4cccc(CNC(=O)C5CC5)c4)c3n2)cc1 [Compound 203] | 1e-08 to 1e-07 M | < 1e-08 M |
| O=C(O)CNC(=O)c1ccc(Nc2ncc3nnn(-c4cccc(CNC(=O)C5CC5)c4)c3n2)cc1 [Compound 205] | < 1e-08 M | < 1e-08 M |
| O=C(O)c1ccc(Nc2ncc3nnn(-c4cccc(CNC(=O)C5CC5)c4)c3n2)cc1 [Compound 206] | < 1e-08 M | < 1e-08 M |
| O=C(O)Cc1ccc(Nc2ncc3nnn(-c4cccc(CNC(=O)C5CC5)c4)c3n2)cc1 [Compound 207] | < 1e-08 M | < 1e-08 M |
| O=C(NCc1cccc(-n2nnc3cnc(Nc4ccc(CCO)cc4)nc32)c1)C1CC1 [Compound 208] | < 1e-08 M | < 1e-08 M |
| COc1ccc(Nc2ncc3nnn(-c4cccc(CNC(=O)C5CC5)c4)c3n2)cn1 [Compound 209] | 1e-08 to 1e-07 M | 1e-08 to 1e-07 M |
| NS(=O)(=O)c1ccc(Nc2ncc3nnn(-c4cccc(CNC(=O)C5CC5)c4)c3n2)cc1 [Compound 210] | < 1e-08 M | < 1e-08 M |
| O=C(O)c1ccc(Nc2ncc3nnn(-c4cccc(CNC(=O)C5CC5)c4)c3n2)cc1Cl [Compound 212] | < 1e-08 M | < 1e-08 M |
| CCOC(=O)NCc1cccc(-n2nnc3cnc(Nc4cccc(C#N)c4)nc32)c1 [Compound 214] | < 1e-08 M | < 1e-08 M |
| CCOC(=O)NCc1cccc(-n2nnc3cnc(Nc4cccc(COC)c4)nc32)c1 [Compound 216] | < 1e-08 M | < 1e-08 M |
| CCOC(=O)NCc1cccc(-n2nnc3cnc(Nc4cccc(NS(C)(=O)=O)c4)nc32)c1 [Compound 217] | < 1e-08 M | < 1e-08 M |
| CCOC(=O)NCc1cccc(-n2nnc3cnc(Nc4ccc(C(N)=O)cc4)nc32)c1 [Compound 218] | < 1e-08 M | < 1e-08 M |
| CCOC(=O)NCc1cccc(-n2nnc3cnc(Nc4ccc(CC(=O)O)cc4)nc32)c1 [Compound 219] | < 1e-08 M | < 1e-08 M |

| SMILES | IC50 (GSK3β) | IC50 (GSK3alpha) |
| --- | --- | --- |
| CCOC(=O)NCc1cccc(-n2nnc3cnc(Nc4ccc(CCO)cc4)nc32)c1 [Compound 220] | < 1e-08 M | < 1e-08 M |
| CCOC(=O)NCc1cccc(-n2nnc3cnc(Nc4ccc(OC)nc4)nc32)c1 [Compound 221] | < 1e-08 M | < 1e-08 M |
| CCOC(=O)NCc1cccc(-n2nnc3cnc(Nc4cccc([S+](C)[O-])c4)nc32)c1 (stereo not shown) [Compound 223] | < 1e-08 M | < 1e-08 M |
| NS(=O)(=O)c1ccc(Nc2ncc3nnn(-c4cccc(C(=O)NCCO)c4)c3n2)cc1 [Compound 227] | 1e-08 to 1e-07 M | < 1e-08 M |
| NC(=O)c1cccc(-n2nnc3cnc(Nc4ccc(C(=O)O)cc4)nc32)c1 [Compound 228] | < 1e-08 M | < 1e-08 M |
| N#Cc1ccc(Nc2ncc3nnn(-c4cccc(C(=O)NCCO)c4)c3n2)cc1 [Compound 229] | < 1e-08 M | < 1e-08 M |
| CS(=O)(=O)Nc1cccc(Nc2ncc3nnn(-c4cccc(CNC(=O)C56CC7CC(CC(C7)C5)C6)c4)c3n2)c1 [Compound 235] | 1e-08 to 1e-07 M | < 1e-08 M |
| NC(=O)c1ccc(Nc2ncc3nnn(-c4cccc(CNC(=O)C56CC7CC(CC(C7)C5)C6)c4)c3n2)cc1 [Compound 237] | 1e-08 to 1e-07 M | 1e-08 M |
| O=C(O)CNC(=O)c1ccc(Nc2ncc3nnn(-c4cccc(CNC(=O)C56CC7CC(CC(C7)C5)C6)c4)c3n2)cc1 [Compound 238] | < 1e-08 M | < 1e-08 M |
| O=C(O)c1ccc(Nc2ncc3nnn(-c4cccc(CNC(=O)C56CC7CC(CC(C7)C5)C6)c4)c3n2)cc1 [Compound 239] | 1e-08 to 1e-07 M | 1e-08 M |
| O=C(O)Cc1ccc(Nc2ncc3nnn(-c4cccc(CNC(=O)C56CC7CC(CC(C7)C5)C6)c4)c3n2)cc1 [Compound 240] | 1e-08 to 1e-07 M | 1e-08 to 1e-07 M |
| O=C(NCc1cccc(-n2nnc3cnc(Nc4ccc(CCO)cc4)nc32)c1)C12CC3CC(CC(C3)C1)C2 [Compound 241] | 1e-08 to 1e-07 M | 1e-08 to 1e-07 M |
| NS(=O)(=O)c1ccc(Nc2ncc3nnn(-c4cccc(CNC(=O)C56CC7CC(CC(C7)C5)C6)c4)c3n2)cc1 [Compound 243] | 1e-08 to 1e-07 M | 1e-08 to 1e-07 M |
| COc1cccc(-n2nnc3cnc(Nc4ccc(C(=O)O)cc4)nc32)c1 [Compound 246] | < 1e-08 M | < 1e-08 M |
| O=C(O)c1ccc(Nc2ncc3nnn(-c4cccc(C(=O)NCCO)c4)c3n2)cc1 [Compound 247] | 1e-08 to 1e-07 M | < 1e-08 M |
| CC(=O)NCc1cccc(-n2nnc3cnc(Nc4ccc(S(N)(=O)=O)cc4)nc32)c1 [Compound 248] | < 1e-08 M | < 1e-08 M |
| COCc1cccc(-n2nnc3cnc(Nc4ccc(C(=O)O)c(C)c4)nc32)c1 [Compound 249] | < 1e-08 M | < 1e-08 M |
| NC(=O)Cc1cccc(-n2nnc3cnc(Nc4ccc(F)cc4)nc32)c1 [Compound 254] | < 1e-08 M | < 1e-08 M |
| CCOc1cc(Nc2ncc3nnn(-c4cccc(CCO)c4)c3n2)ccc1C(=O)O [Compound 255] | < 1e-08 M | < 1e-08 M |
